Test results: PubChem BioAssay (NCI)
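Compound exposure: 48 hours, 5 concentrations, 96-well plates. Here, GI50 denotes the concentration required for 50% inhibition of growth. TGI: concentration producing complete growth inhibition.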

What was measured:
Test in all cases: NCI-60 cell line screen, 48 h
SK-MEL-28 melanoma = test system: SK-MEL-28 melanoma
HCT-116 colon = test system: HCT-116 colon
SK-OV-3 ovarian = test system: SK-OV-3 ovarian
MDA-MB-435 = test system: MDA-MB-435
SK-MEL-2 melanoma = test system: SK-MEL-2 melanoma
NCI-H460 lung = test system: NCI-H460 lung
NCI-H23 lung = test system: NCI-H23 lung
NCI/ADR-RES ovarian = test system: NCI/ADR-RES ovarian
T-47D breast = test system: T-47D breast
COLO 205 colon = test system: COLO 205 colon
SF-539 CNS = test system: SF-539 CNS
TK-10 renal = test system: TK-10 renal
U251 CNS = test system: U251 CNS
HOP-92 NSCLC = test system: HOP-92 NSCLC
MCF7 breast = test system: MCF7 breast
NCI-H522 lung = test system: NCI-H522 lung
MOLT-4 leukemia = test system: MOLT-4 leukemia
A549 NSCLC = test system: A549 NSCLC
SR leukemia = test system: SR leukemia

| Compound | TGI (SK-MEL-28 melanoma) [µM] | TGI (HCT-116 colon) [µM] | TGI (SK-OV-3 ovarian) [µM] | TGI (MDA-MB-435) [µM] | TGI (SK-MEL-2 melanoma) [µM] | TGI (NCI-H460 lung) [µM] | TGI (NCI-H23 lung) [µM] | TGI (NCI/ADR-RES ovarian) [µM] | TGI (T-47D breast) [µM] | TGI (COLO 205 colon) [µM] | TGI (SF-539 CNS) [µM] | TGI (TK-10 renal) [µM] | TGI (U251 CNS) [µM] | TGI (HOP-92 NSCLC) [µM] | TGI (MCF7 breast) [µM] | TGI (NCI-H522 lung) [µM] | TGI (MOLT-4 leukemia) [µM] | TGI (A549 NSCLC) [µM] | TGI (SR leukemia) [µM] | GI50 (HCT-116 colon) [µM] |
| --- | --- | --- | --- | --- | --- | --- | --- | --- | --- | --- | --- | --- | --- | --- | --- | --- | --- | --- | --- | --- |
| CC1(C)N=C(N)N=C(N)N1c1cccc(C(=O)Nc2ccc(S(=O)(=O)F)cc2)c1 | > 100 | > 100 | > 100 | > 100 | > 100 | > 100 | > 100 | > 100 | > 100 | > 100 | > 100 | > 100 | > 100 | > 100 | > 100 | > 100 | > 100 | > 100 | – | – |
| CC(=O)O[C@@]12CO[C@@H]1C[C@@H](O)[C@@]1(C)C(=O)[C@H](O)C3=C(C)[C@@H](OC(=O)[C@H](O)[C@@H](NC(=O)c4ccccc4)c4ccccc4)C[C@@](O)([C@@H](OC(=O)c4ccccc4)C12)C3(C)C (stereo partly specified) | > 100 | 0.152 | > 100 | – | 0.887 | 25.1 | – | 74.4 | > 100 | 0.176 | 0.0579 | > 72.5 | > 100 | – | > 100 | – | > 42.5 | > 100 | > 50.1 | – |
| O=c1cc(-c2ccco2)[nH]c2cc3c(cc12)OCO3 | > 100 | > 100 | – | – | > 100 | > 100 | > 100 | – | – | 78.5 | 75.5 | > 100 | > 100 | – | – | – | > 100 | > 100 | > 100 | 39.9 |
| c1ccc(C(=NCCC2CNc3ccccc32)c2ccccc2)cc1 (stereo unspecified) | > 100 | > 100 | > 100 | > 100 | > 100 | > 100 | > 100 | > 100 | – | > 100 | – | – | > 100 | > 100 | > 100 | > 100 | > 100 | > 100 | > 100 | – |
| C#CCN(N=O)C(=O)NCCCCC(NC(C)=O)C(=O)NCc1ccccc1 (stereo unspecified) | > 100 | > 100 | > 100 | – | – | > 100 | > 100 | – | – | > 100 | > 100 | > 100 | > 100 | > 100 | – | > 100 | > 100 | > 100 | > 100 | – |
| CC(=O)OCC1OC(O[C@@H]2C[C@H]3C(C)(C)[C@@H](OC(C)=O)CC[C@]3(C)[C@H]3CC[C@]45C[C@]4(CC[C@H]5[C@@H](C)C[C@@H](O)[C@H](O)C(C)(C)F)[C@@]32C)C(O)C(O)C1O (stereo partly specified) | 3.3 | 2.95 | > 100 | 31.6 | – | > 100 | 4.56 | 29.6 | > 100 | 3.38 | 3.51 | > 100 | 41.1 | 3.71 | > 100 | 4.82 | 4.28 | 3.12 | – | – |
| CCOC(=O)c1cc(Br)c(-c2cc(C)no2)[nH]1 | > 100 | > 100 | > 100 | 38.8 | > 100 | 55 | > 100 | > 100 | > 100 | 34.8 | > 100 | > 100 | > 100 | > 100 | – | 78.9 | > 100 | > 100 | – | – |
| COc1nc2c(c(=O)n1C)N=C(c1ccccc1)[C@H](C(CC(=O)c1ccccc1)c1ccccc1)C(c1ccccc1)N2 (stereo partly specified) | > 100 | > 100 | > 100 | > 100 | > 100 | – | > 100 | > 100 | – | > 100 | > 100 | – | > 100 | > 100 | > 100 | > 100 | 57.1 | > 100 | > 100 | – |
| Nc1ccc(C23CC4CC(C2)CC(c2ccc(N)cc2)(C4)C3)cc1 | > 100 | > 100 | – | > 100 | > 100 | > 100 | > 100 | > 100 | – | 52.5 | 31.1 | > 100 | 35.6 | > 100 | > 100 | – | 28.4 | > 100 | 38.5 | – |
| COc1cc2c(cc1OC)C(=O)C1(C2)[C@H](c2ccccc2)C2C(=O)c3cc(OC)c(OC)cc3C2[C@H]1c1ccccc1 (stereo partly specified) | > 100 | > 100 | > 100 | > 100 | – | > 100 | > 100 | > 100 | > 100 | > 100 | > 100 | > 100 | > 100 | – | – | > 100 | > 100 | > 100 | > 100 | – |
| CN(C)c1snc2c1c(=O)n(C)c(=O)n2C | > 100 | > 100 | > 100 | – | > 100 | > 100 | > 100 | – | – | > 100 | > 100 | > 100 | > 100 | – | – | > 100 | > 100 | > 100 | – | – |
| C[N+](C)(C)c1cc2c(nn1)Nc1ccccc1S2 | 53.1 | 66 | 72 | 51.9 | 37.1 | 48.8 | > 100 | 56.9 | 28.2 | 38 | – | > 100 | 63.9 | 48.5 | > 100 | 52.8 | 44.2 | > 100 | – | – |
| COC(=O)C(C(=O)C(=O)Nc1cccc([N+](=O)[O-])c1)c1nc2ccc([N+](=O)[O-])cc2[nH]c1=O (stereo unspecified) | > 100 | > 100 | > 100 | – | > 100 | > 100 | > 100 | – | – | > 100 | > 100 | > 100 | > 100 | – | – | > 100 | > 100 | > 100 | > 100 | – |
| CC1(c2ccc(Cl)s2)CC(c2ccc(Cl)s2)=C(C#N)C(=C(C#N)C#N)N1 (stereo unspecified) | 50.5 | 34.2 | 30.5 | 35.1 | 47.2 | 82.6 | 42.2 | 38.8 | 46.7 | 61.1 | 68.7 | 38.1 | 33.2 | 38.8 | 39.9 | – | > 100 | 48.8 | – | – |
| CN=C(N)c1ccc(N=C(N)c2ccc(C(N)=Nc3ccc(C(N)=NC)cc3)cc2)cc1 | > 100 | – | > 100 | – | > 100 | > 100 | – | – | – | > 100 | > 100 | > 100 | > 100 | > 100 | – | > 100 | > 100 | > 100 | – | – |
| CCCCNC(=O)C1C2CCC(O2)C1C(=O)O (stereo unspecified) | 76.1 | 25.2 | 53.7 | – | 54.8 | > 100 | > 100 | – | – | 32.5 | 39.6 | 42.5 | 29 | 39 | – | 41.8 | 40.4 | > 100 | 95.4 | – |
| O=C1c2c(ccc3c2CCC3)CC12Cc1ccccc1C2 | 80.4 | 19.6 | > 100 | > 100 | 47.6 | 96.1 | > 100 | > 100 | > 100 | 53.1 | 74.8 | > 100 | > 100 | 41 | > 100 | 73.7 | 30.1 | > 100 | – | – |
| O=c1cc(N=Nc2ccc(Cl)c(Cl)c2)[nH]c(=O)[nH]1 | 3.3 | 3.21 | 30 | 17.6 | 12 | 7.46 | 10.7 | 3.93 | – | 3.36 | 8.04 | 3.18 | 3.65 | 3.07 | 3.99 | 2.81 | 6.48 | 42.3 | 1.54 | – |
| COc1ccc(/C(=C/n2ccnc2)C(O)c2ccc(OC)c(OC)c2)cc1OC (stereo unspecified) | > 100 | – | > 100 | – | > 100 | > 100 | > 100 | – | – | > 100 | > 100 | > 100 | > 100 | > 100 | – | – | > 100 | – | > 100 | – |
| COC(=O)[C@H]1COC(=O)N1 | > 100 | > 100 | > 100 | > 100 | > 100 | > 100 | > 100 | > 100 | > 100 | > 100 | > 100 | > 100 | > 100 | > 100 | > 100 | > 100 | > 100 | > 100 | – | – |
| O=C(NC(Cc1cnc[nH]1)C(=O)N1CCCC1)C1CCCC1 (stereo unspecified) | > 100 | > 100 | > 100 | > 100 | – | > 100 | > 100 | > 100 | – | > 100 | – | > 100 | > 100 | > 100 | > 100 | > 100 | > 100 | > 100 | > 100 | – |
| COc1ccc(NC(=O)C(C)Oc2ccc(OCC3CCCCC3)cc2)cc1 (stereo unspecified) | > 100 | > 100 | > 100 | – | > 100 | > 100 | 68.3 | – | – | – | > 100 | > 100 | > 100 | – | – | > 100 | > 100 | > 100 | – | – |
| CCOC(OCC)N1C(=O)C2(C(OCC)OCC)CC3C(OC(=O)N3N)c3cccc1c32 (stereo unspecified) | > 100 | > 100 | > 100 | > 100 | – | > 100 | > 100 | > 100 | > 100 | > 100 | > 100 | > 100 | > 100 | – | > 100 | – | > 100 | > 100 | > 100 | – |
| O=S(=O)(SC1=NCCN1)c1cccc2ccccc12 | > 100 | > 100 | 45.7 | > 100 | > 100 | 84.3 | 91.2 | > 100 | – | 34.4 | 49.6 | – | > 100 | > 100 | > 100 | 36.2 | 95.9 | 67.8 | > 10 | – |
| O=c1c(-c2ccccc2F)coc2cc(F)ccc12 | > 100 | > 100 | > 100 | > 100 | > 100 | > 100 | > 100 | – | > 100 | > 100 | > 100 | > 100 | > 100 | > 100 | – | > 100 | > 100 | > 100 | – | – |
| C=CCN1/C(=C2\SC(=S)N(c3ccc(C)cc3)C2=O)Sc2c1nc[nH]c2=O | > 100 | > 100 | > 100 | – | > 100 | > 100 | > 100 | – | – | > 100 | > 100 | > 100 | > 100 | > 100 | – | > 100 | > 100 | > 100 | – | – |
| C#Cc1cc(Br)c(OC(=O)C(C)(C)C)c(-c2cc(C#C)cc(Br)c2OC(=O)C(C)(C)C)c1 | > 100 | > 100 | > 100 | > 100 | > 100 | > 100 | > 100 | > 100 | > 100 | > 100 | > 100 | > 100 | > 100 | > 100 | > 100 | > 100 | > 100 | > 100 | – | – |
| O=C1c2ccccc2C(=O)C1C(c1ccc(F)cc1)C1C(=O)c2ccccc2C1=O | > 100 | > 100 | > 100 | – | > 100 | > 100 | > 100 | – | – | > 100 | > 100 | > 100 | > 100 | > 100 | – | > 100 | > 100 | > 100 | > 100 | – |
